Results published in US10238670B2, “9-aminomethyl minocycline compounds and methods of use thereof in urinary tract infection (UTI) treatment” (Paratek Pharmaceuticals, Inc., priority 2016, dated 2019).
≈ marks a conversion by molar mass, not a printed value. Where two headings read alike, the source gives them in different places. Values belong to the molecule of their own block, whether it stands above or below them.

How the values were obtained:
[1] = test system: human plasma protein; details: cited from earlier work
[2] = test system: A. baumanii; assay: In vitro MIC, 2010 surveillance isolates; assay type: cell-based
[3] = test system: E. faecalis VS; assay: In vitro MIC, 2010 surveillance isolates; assay type: cell-based; details: for % R (resistance): CLSI breakpoints
[4] = test system: K. pneumoniae ESBL−; assay: In vitro MIC, 2010 surveillance isolates; assay type: cell-based, Klebsiella pneumoniae; details: for % R (resistance): CLSI breakpoints
[5] = test system: MSSA; assay: In vitro MIC, 2010 surveillance isolates; assay type: cell-based
[6] = test system: MRSA; assay: In vitro MIC, 2010 surveillance isolates; assay type: cell-based
[7] = test system: E. faecium VS; assay: In vitro MIC, 2010 surveillance isolates; assay type: cell-based; details: for % R (resistance): CLSI breakpoints
[8] = test system: E. coli ESBL+; assay: In vitro MIC, 2010 surveillance isolates; assay type: cell-based, Escherichia coli; details: for % R (resistance): CLSI breakpoints
[9] = test system: Acinetobacter spp; assay: In vitro MIC, 2010 surveillance isolates; assay type: cell-based; details: for range of MICs (N <10, shown instead of MIC90): N=9; for % R (resistance): CLSI breakpoints
[10] = test system: MR CoNS; assay: In vitro MIC, 2010 surveillance isolates; assay type: cell-based, Coagulase-Negative Staphylococcus
[11] = test system: E. cloacae CeftazR; assay: In vitro MIC, 2010 surveillance isolates; assay type: cell-based; details: for % R (resistance): CLSI breakpoints
[12] = test system: E. coli ESBL−; assay: In vitro MIC, 2010 surveillance isolates; assay type: cell-based, Escherichia coli; details: for % R (resistance): CLSI breakpoints
[13] = test system: E. cloacae CeftazS; assay: In vitro MIC, 2010 surveillance isolates; assay type: cell-based; details: for % R (resistance): CLSI breakpoints
[14] = test system: Enterobacter spp; assay: In vitro MIC, 2010 surveillance isolates; assay type: cell-based; details: for % R (resistance): CLSI breakpoints
[15] = test system: K. oxytoca; assay: In vitro MIC, 2010 surveillance isolates; assay type: cell-based; details: for % R (resistance): CLSI breakpoints
[16] = test system: K. pneumoniae ESBL+; assay: In vitro MIC, 2010 surveillance isolates; assay type: cell-based, Klebsiella pneumoniae; details: for % R (resistance): CLSI breakpoints
[17] = test system: MS CoNS; assay: In vitro MIC, 2010 surveillance isolates; assay type: cell-based, Coagulase-Negative Staphylococcus
[18] = test system: E. faecalis VNS; assay: In vitro MIC, 2010 surveillance isolates; assay type: cell-based; details: for % R (resistance): CLSI breakpoints
[19] = test system: E. faecium VNS; assay: In vitro MIC, 2010 surveillance isolates; assay type: cell-based; details: for % R (resistance): CLSI breakpoints

SMILES: CCCCCCCCCC(=O)N[C@@H](Cc1c[nH]c2ccccc12)C(=O)N[C@H](CC(N)=O)C(=O)N[C@@H](CC(=O)O)C(=O)N[C@@H]1C(=O)NCC(=O)N[C@@H](CCCN)C(=O)N[C@@H](CC(=O)O)C(=O)N[C@H](C)C(=O)N[C@@H](CC(=O)O)C(=O)NCC(=O)N[C@H](CO)C(=O)N[C@@H]([C@H](C)CC(=O)O)C(=O)N[C@@H](CC(=O)c2ccccc2N)C(=O)O[C@@H]1C [Daptomycin]
protein bound in human plasma [1]: > 75%

MIC90 ([2]; Asia/Pac, N=275): > 8 µg/mL
MIC90 ([2]; Europe, N=145): > 8 µg/mL
MIC90 ([2]; L. Amer, N=275): > 8 µg/mL
MIC90 ([2]; N America, N=154): > 8 µg/mL
MIC90 ([3]; Asia/Pac, N=214): > 8 µg/mL
MIC90 ([3]; Europe, N=669): > 8 µg/mL
MIC90 ([3]; L. Amer, N=290): 8 µg/mL (≈ 18 µM)
MIC90 ([3]; N America, N=863): 8 µg/mL (≈ 18 µM)
MIC90 ([4]; Asia/Pac, N=189): > 8 µg/mL
MIC90 ([4]; Europe, N=361): > 8 µg/mL
MIC90 ([4]; L. Amer, N=160): > 8 µg/mL
MIC90 ([4]; N America, N=671): > 8 µg/mL
MIC90 ([5]; Asia/Pac, N=641): 1 µg/mL (≈ 2.25 µM)
MIC90 ([5]; Europe, N=2109): 0.12 µg/mL (≈ 0.27 µM)
MIC90 ([5]; L. Amer, N=590): 0.5 µg/mL (≈ 1.13 µM)
MIC90 ([5]; N America, N=2373): 0.12 µg/mL (≈ 0.27 µM)
MIC90 ([6]; Asia/Pac, N=428): 8 µg/mL (≈ 18 µM)
MIC90 ([6]; Europe, N=750): 4 µg/mL (≈ 9 µM)
MIC90 ([6]; L. Amer, N=506): 0.25 µg/mL (≈ 0.563 µM)
MIC90 ([6]; N America, N=2508): 0.5 µg/mL (≈ 1.13 µM)
MIC90 ([7]; Asia/Pac, N=106): > 8 µg/mL
MIC90 ([7]; Europe, N=303): > 8 µg/mL
MIC90 ([7]; L. Amer, N=51): > 8 µg/mL
MIC90 ([7]; N America, N=115): > 8 µg/mL
MIC90 ([8]; Asia/Pac, N=219): > 8 µg/mL
MIC90 ([8]; Europe, N=274): > 8 µg/mL
MIC90 ([8]; L. Amer, N=168): > 8 µg/mL
MIC90 ([8]; N America, N=134): > 8 µg/mL
range of MICs (N <10, shown instead of MIC90) ([9]; Asia/Pac): ≤0.06-2
MIC90 ([9]; Europe, N=43): > 8 µg/mL
range of MICs (N <10, shown instead of MIC90) ([9]; L. Amer): ≤0.06-2
MIC90 ([9]; N America, N=42): > 8 µg/mL
MIC90 ([10]; Asia/Pac, N=77): 8 µg/mL (≈ 18 µM)
MIC90 ([10]; Europe, N=510): 2 µg/mL (≈ 4.5 µM)
MIC90 ([10]; L. Amer, N=301): 1 µg/mL (≈ 2.25 µM)
MIC90 ([10]; N America, N=461): 2 µg/mL (≈ 4.5 µM)
MIC90 ([11]; Asia/Pac, N=63): 8 µg/mL (≈ 18 µM)
MIC90 ([11]; Europe, N=72): > 8 µg/mL
MIC90 ([11]; L. Amer, N=42): > 8 µg/mL
MIC90 ([11]; N America, N=77): > 8 µg/mL
MIC90 ([12]; Asia/Pac, N=282): > 8 µg/mL
MIC90 ([12]; Europe, N=1533): > 8 µg/mL
MIC90 ([12]; L. Amer, N=389): > 8 µg/mL
MIC90 ([12]; N America, N=1172): > 8 µg/mL
MIC90 ([13]; Asia/Pac, N=100): > 8 µg/mL
MIC90 ([13]; Europe, N=183): 4 µg/mL (≈ 9 µM)
MIC90 ([13]; L. Amer, N=57): > 8 µg/mL
MIC90 ([13]; N America, N=210): 4 µg/mL (≈ 9 µM)
MIC90 ([14]; Asia/Pac, N=52): > 8 µg/mL
MIC90 ([14]; Europe, N=82): 8 µg/mL (≈ 18 µM)
MIC90 ([14]; L. Amer, N=42): 4 µg/mL (≈ 9 µM)
MIC90 ([14]; N America, N=101): 4 µg/mL (≈ 9 µM)
MIC90 ([15]; Asia/Pac, N=17): 2 µg/mL (≈ 4.5 µM)
MIC90 ([15]; Europe, N=158): 2 µg/mL (≈ 4.5 µM)
MIC90 ([15]; L. Amer, N=25): > 8 µg/mL
MIC90 ([15]; N America, N=177): 4 µg/mL (≈ 9 µM)
MIC90 ([16]; Asia/Pac, N=124): > 8 µg/mL
MIC90 ([16]; Europe, N=151): > 8 µg/mL
MIC90 ([16]; L. Amer, N=209): > 8 µg/mL
MIC90 ([16]; N America, N=108): > 8 µg/mL
MIC90 ([17]; Asia/Pac, N=18): 2 µg/mL (≈ 4.5 µM)
MIC90 ([17]; Europe, N=185): 1 µg/mL (≈ 2.25 µM)
MIC90 ([17]; L. Amer, N=67): 2 µg/mL (≈ 4.5 µM)
MIC90 ([17]; N America, N=191): 1 µg/mL (≈ 2.25 µM)
range of MICs (N <10, shown instead of MIC90) ([18]; Asia/Pac, N=1): 8
range of MICs (N <10, shown instead of MIC90) ([18]; Europe, N=8): 0.5-8
range of MICs (N <10, shown instead of MIC90) ([18]; L. Amer, N=7): ≤0.06-4
MIC90 ([18]; N America, N=38): 8 µg/mL (≈ 18 µM)
MIC90 ([19]; Asia/Pac, N=24): > 8 µg/mL
MIC90 ([19]; Europe, N=71): 8 µg/mL (≈ 18 µM)
MIC90 ([19]; L. Amer, N=41): 8 µg/mL (≈ 18 µM)
MIC90 ([19]; N America, N=478): > 8 µg/mL
SMILES: C[C@H]1c2cccc(O)c2C(=O)C2=C(O)[C@]3(O)C(=O)C(C(N)=O)=C(O)[C@@H](N(C)C)[C@@H]3[C@@H](O)[C@@H]21 [Doxycycline]
% R (resistance) ([2]; L. Amer, CLSI breakpoints): 15.3%
% R (resistance) ([3]; L. Amer): 7.6%
% R (resistance) ([3]; N America): 7.1%
% R (resistance) ([4]; L. Amer): 17.5%
% R (resistance) ([4]; N America): 13.7%
% R (resistance) ([5]; Asia/Pac, Eucast breakpoints): 1.7%
% R (resistance) ([5]; Europe, Eucast breakpoints): 1.4%
% R (resistance) ([5]; L. Amer, CLSI breakpoints): 0%
% R (resistance) ([5]; N America, CLSI breakpoints): ≤ 0.1%
% R (resistance) ([6]; Asia/Pac, Eucast breakpoints): 48.6%
% R (resistance) ([6]; Europe, Eucast breakpoints): 10.8%
% R (resistance) ([6]; L. Amer, CLSI breakpoints): 0%
% R (resistance) ([6]; N America, CLSI breakpoints): 0.1%
% R (resistance) ([7]; L. Amer): 21.6%
% R (resistance) ([7]; N America): 31.3%
resistance rates for ESBL-producing clinical isolates ([8]; E. coli): 46%
% R (resistance) ([8]; L. Amer): 53%
% R (resistance) ([8]; N America): 42.5%
% R (resistance) ([9]; L. Amer): 0%
% R (resistance) ([9]; N America): 11.9%
% R (resistance) ([10]; Asia/Pac, Eucast breakpoints): 20.8%
% R (resistance) ([10]; Europe, Eucast breakpoints): 8.8%
% R (resistance) ([10]; L. Amer, CLSI breakpoints): 0.3%
% R (resistance) ([10]; N America, CLSI breakpoints): 1.3%
% R (resistance) ([11]; L. Amer): 14.3%
% R (resistance) ([11]; N America): 28.6%
% R (resistance) ([12]; L. Amer): 31.4%
% R (resistance) ([12]; N America): 16%
human plasma protein binding, Mean ([1]; literature): 82-93%
% R (resistance) ([13]; L. Amer): 12.3%
% R (resistance) ([13]; N America): 6.2%
% R (resistance) ([14]; L. Amer): 0%
% R (resistance) ([14]; N America): 7.9%
% R (resistance) ([15]; L. Amer): 12%
% R (resistance) ([15]; N America): 2.3%
% R (resistance) ([16]; L. Amer): 44%
% R (resistance) ([16]; N America): 43.5%
% R (resistance) ([17]; Asia/Pac, Eucast breakpoints): 5.6%
% R (resistance) ([17]; Europe, Eucast breakpoints): 3.2%
% R (resistance) ([17]; L. Amer, CLSI breakpoints): 0%
% R (resistance) ([17]; N America, CLSI breakpoints): 0.5%
% R (resistance) ([18]; L. Amer): 0%
% R (resistance) ([18]; N America): 5.3%
% R (resistance) ([19]; L. Amer): 7.3%
% R (resistance) ([19]; N America): 33.1%

SMILES: CC(=O)NC[C@H]1CN(c2ccc(N3CCOCC3)c(F)c2)C(=O)O1 [Linezolid]
protein bound in human plasma ([1]; human, plasma): 31%
